Laboratory results as given in patent US8088402B2, “Bone growth compositions and methods” (Neuropro Technologies, Inc., priority 2002, dated 2012).

System: male Sprague Dawley rats
Test: Manual palpation scoring of spinal fusion strength after decortication in rats
Type: in vivo, rat
Method: Twelve male Sprague Dawley rats, each weighing approximately 500 grams were selected. Each rat underwent anesthesia with Nembutal (50 mg/kg i.p.). Incision over two regions, the thoracic and lumbar, of the spine in each animal were made. Each incision allowed for the exposure of spinous processes and lamina of at east 2 levels per region. Decortication was carried out at each thoracic and lumbar region using a high-speed drill. Over the decorticated levels, nothing, gelmatrix, gelmatrix plus 8 mg lovastatin or gelmatrix plus 16 mg lovastatin were added. 8 mg I.M. of antibiotic Cefazolin™ was subcutaneously administered to each rat.
For purposes of analysis, the rats were divided into three groups. Group A consisting of rats 1-4 was treated with nothing or gelmatrix. Group B consisting of rats 5-8 was treated with gelmatrix and 8 mg of lovastatin. And, group C consisting of rats 9-12 was treated with gelmatrix and 16 mg of lovastatin. The following is a summary of the data:
After en bloc removal, two observers manually palpated the spine of each rat in a blinded fashion. Palpation was made by flexion and extension at the level of the arthrodesis and at the adjacent levels proximally and distally. […] Each motion segment was graded on a qualitative scale (0-3) based on the strength of the fusion. A solid fusion having no motion was given a score of 3. […] No fusion was scored as a 0. […]

Structure (SMILES): CC[C@H](C)C(=O)O[C@H]1C[C@@H](C)C=C2C=C[C@H](C)[C@H](CC[C@@H]3C[C@@H](O)CC(=O)O3)[C@H]21 [lovastatin]
- rats treated with lovastatin that had a stronger fusion at the treated region than rats not treated (gelmatrix plus 8 mg or 16 mg lovastatin over decorticated thoracic or lumbar levels, blinded manual palpation, scale 0-3): seventy five
- dose dependence of fusion grades (palpation score 0-3) (gelmatrix plus 8 mg vs 16 mg lovastatin, FIG. 11): dose dependent
